In brackets after ≈: the same amount, converted by molar mass.
Assay: Equilibrium solubility of baicalin in different solvents (excess compound, HPLC)
Format: physicochemical
Conditions: for Solubility of Baicalin: excess compound stirred at 40 °C for 2 h, HPLC
Description: Solubility tests were carried out using distilled water, 70% ethanol and DESs with an excess of the tested compound in a capped bottle and stirred at 40 °C for 2 h. The resulting mixture containing undissolved solid compounds were centrifuged. The supernatant was transferred to a 5 mL-microtube, diluted with methanol and vortexed to a homogeneous solution. The concentration of baicalin in the solution was monitored by HPLC. All solubility tests were performed in triplicate.

O=C(O)[C@H]1O[C@@H](Oc2cc3oc(-c4ccccc4)cc(=O)c3c(O)c2O)[C@H](O)[C@@H](O)[C@@H]1O [baicalin]
solubility thermodynamic at 2 h (40 °C, organic solvent or mixture, thermodynamic from solid, solvent: DES-1, room temperature): 22.7 mg/mL (≈ 50.9 mM) | Solubility of Baicalin (solvent: 70% Ethanol): 1.85 mg/g | Solubility of Baicalin (solvent: DES-1 (ChCl-lactic acid 1:1)): 22.7 mg/g | Solubility of Baicalin (solvent: DES-2 (ChCl-glucose 1:1)): 18.2 mg/g | Solubility of Baicalin (solvent: DES-3 (ChCl-glycerol 1:1)): 12.35 mg/g | Solubility of Baicalin (solvent: DES-4 (ChCl-1,4-butanediol 1:1)): 2.25 mg/g | Solubility of Baicalin (solvent: DES-5 (ChCl-ethylene glycol 1:1)): 17.8 mg/g | Solubility of Baicalin (solvent: Water): 0.18 mg/g
